Experimental data as given in US20170239289A1, “TREATMENT OF INFLAMMATION, RESPIRATORY TRACT INFECTIONS AND CYSTIC FIBROSIS” (Advanced Inhalation Therapies (AIT) Ltd., priority 2014, published 2017).
Several values for one entry are separate records, joined by “and”; a condition that tells them apart may be missing. Equal entries are not always repeated.

Test system: human subjects diagnosed with acute bronchiolitis
Experiment: Example 3: randomized bronchiolitis study, infants 2-12 months; 160 ppm NO 30 min 5x daily up to 5 days plus O2 vs O2 alone; efficacy
Format: in vivo
Excerpt: Eligible subjects were randomized (1:1) to receive intermittent NO and standard treatment with O2 (hereafter referred to as NO treatment) or standard treatment with O2 (hereafter referred to as standard treatment) alone for a treatment period of up to 5 days. During treatment, MetHb and O2 saturation levels were continuously monitored using a dedicated monitor.
In addition to standard supportive O2 treatment which was initiated prior to randomization, subjects in the NO group were given five 30 minute inhalations per day of 160 ppm NO, at intervals of 3 to 4 hours, until subject improvement led to a physician decision of fit to discharge, to a maximum of 25 inhalations over 5 consecutive days. Inhalations were administered via hospital face masks (Hospiltak, Unomedical Inc).
All subjects in the control group were managed with standard supportive O2 treatment in the same way as the active treatment group, but without actual NO administration.
Secondary Endpoints—Efficacy: • LOS in hours, measured as time from first inhalation treatment to “fit to discharge” • Time to reach 92% O2 saturation (in room air) measured as time from first inhalation treatment to first O2 saturation of 92% sustained to discharge • Time to clinical score of less than or equal to 5 measured as time from first inhalation treatment to clinical score of less than or equal to 5
The following analysis sets were defined for analysis of safety and efficacy: • Intent-to-treat (ITT): Defined as all randomized subjects who received at least one study treatment. This was the main set for analysis of efficacy and safety. • Per-Protocol (PP): Defined as all subjects in the ITT cohort who completed study treatment in compliance with the protocol (i.e., excludes all early termination subjects) and who had no major protocol violations. This was a secondary set for analysis of efficacy.
An additional set for analysis of efficacy was defined post-hoc: • Modified Intent-to-treat (mITT): Defined as all subjects in the ITT, excluding subjects who were prematurely discontinued from treatment and/or or discontinued from the study according to protocol guidelines.
Length of hospitalization stay (LOS) was calculated in hours from the first inhalation treatment to “fit to discharge” defined as physician decision to discharge.
Time to achieve O2 saturation of 92% (improvement) leading to discharge was calculated from first treatment to the first time of O2 saturation of at least 92% before discharge. Time was taken from the clinical score assessments where applicable and from subject daily chart in special circumstances.
Time to clinical score of less than or equal to 5 was calculated from first inhalation to the first time the subject reached a clinical score of less than or equal to 5.
Survival Analysis using a Kaplan-Meier survival function curve was applied for testing the statistical significance of the difference between the study groups in the following endpoints: • LOS, from first inhalation to fit to discharge • Time to achieve 92% Saturation leading to discharge • Time to achieve clinical score less than or equal to 5
The Cox model was applied for comparative analysis of Kaplan-Meier curves. The hazards ratio was estimated via the Cox's regression model.
Post-hoc subgroup analyses of subjects with a LOS less than or equal to 24 hours and greater than 24 hours were also conducted for the key post-hoc secondary endpoints. Additional exploratory analyses were also conducted on a subgroups with LOS greater than 36 hours and a subgroup of the 10 most severe subjects (i.e., longest LOS) from each treatment group. These post-hoc analyses were conducted for the following reasons: • Based on preclinical studies, the anti-viral/anti-microbial treatment effect of NO is expected to take at least 24 hours (i.e., 2.5 treatment hours). • Approximately ⅓ of subjects were discharged after less than 24 hours in hospital. […]

[1] = mITT, 10 most severe subjects from each group
[2] = mITT, LOS greater than 24 hours
[3] = mITT, LOS greater than 36 hours

[N]=O [NO, nitric oxide]
Hazard ratio, time to sustained 92% O2 saturation (ITT (N=42), NO vs standard treatment, 95% CI: 0.392, 1.361): 0.731
Hazard ratio, time to clinical score less than or equal to 5 (ITT (N=43), NO vs standard treatment, 95% CI: 0.378, 1.404): 0.728
Hazard ratio, LOS (Kaplan-Meier/Cox) (ITT (N=43), NO vs standard treatment, 95% CI: 0.435, 1.518): 0.812
Time to first 92% O2 saturation sustained to discharge, Mean (SD) (ITT, All (N = 42)): 35.50 (33.73) hours and 35.50 hours
Time to first 92% O2 saturation sustained to discharge, Median (ITT, All (N = 42)): 21.08 h
LOS, hours Mean (SD) (ITT, All (N = 43)): 43.34 (32.95) hours and 43.34 hours
LOS, hours Median (ITT, All (N = 43)): 40.03 h
Time to Clinical Score ≦5, Mean (SD) (ITT, All (N = 43)): 32.83 (30.61) hours and 32.83 hours
Time to Clinical Score ≦5, Median (ITT, All (N = 43)): 21.08 h
LOS, hours Mean (SD) (ITT, LOS >24 hours (N = 27)): 53.27 h
LOS, hours Median (ITT, LOS >24 hours (N = 27)): 41.92 h
Time to Clinical Score ≦5, Mean (SD) (ITT, LOS >24 hours (N = 27)): 39.62 h
Time to Clinical Score ≦5, Median (ITT, LOS >24 hours (N = 27)): 39.92 h
Time to first 92% O2 saturation sustained to discharge, Mean (SD) (ITT, LOS >24 hours (N = 27)): 43.35 h
Time to first 92% O2 saturation sustained to discharge, Median (ITT, LOS >24 hours (N = 27)): 41.17 h
Hazard ratio, time to clinical score less than or equal to 5 (ITT, LOS greater than 24 hours, 95% CI: 0.161, 0.949): 0.391
Hazard ratio, LOS (Kaplan-Meier/Cox) (ITT, LOS greater than 24 hours, 95% CI: 0.211, 1.091): 0.480
Hazard ratio, time to sustained 92% O2 saturation (ITT, LOS greater than 24 hours, 95% CI: 0.232, 1.145): 0.515
Time to first 92% O2 saturation sustained to discharge, Mean (SD) (ITT, LOS ≦24 hours (N = 15)): 15.86 h
Time to first 92% O2 saturation sustained to discharge, Median (ITT, LOS ≦24 hours (N = 15)): 16.78 h
LOS, hours Mean (SD) (ITT, LOS ≦24 hours (N = 16)): 18.52 h
LOS, hours Median (ITT, LOS ≦24 hours (N = 16)): 18.50 h
Time to Clinical Score ≦5, Mean (SD) (ITT, LOS ≦24 hours (N = 16)): 15.86 h
Time to Clinical Score ≦5, Median (ITT, LOS ≦24 hours (N = 16)): 16.78 h
Hazard ratio, time to sustained 92% O2 saturation (PP (N=38), 95% CI: 0.334, 1.302): 0.660
Hazard ratio, time to clinical score less than or equal to 5 (PP (N=39), 95% CI: 0.332, 1.324): 0.663
Hazard ratio, LOS (Kaplan-Meier/Cox) (PP (N=39), 95% CI: 0.444, 1.688): 0.866
Time to first 92% O2 saturation sustained to discharge, Mean (SD) (PP, All (N = 38)): 30.17 (21.06) hours and 30.17 hours
Time to first 92% O2 saturation sustained to discharge, Median (PP, All (N = 38)): 21.08 h
LOS, hours Mean (SD) (PP, All (N = 39)): 38.79 (21.52) hours and 38.79 hours
LOS, hours Median (PP, All (N = 39)): 40.03 h
Time to Clinical Score ≦5, Mean (SD) (PP, All (N = 39)): 27.18 (13.17) hours and 27.18 hours
Time to Clinical Score ≦5, Median (PP, All (N = 39)): 21.08 h
LOS, hours Mean (SD) (PP, LOS >24 hours (N = 24)): 46.03 h
LOS, hours Median (PP, LOS >24 hours (N = 24)): 41.83 h
Time to Clinical Score ≦5, Mean (SD) (PP, LOS >24 hours (N = 24)): 31.41 h
Time to Clinical Score ≦5, Median (PP, LOS >24 hours (N = 24)): 34.92 h
Time to first 92% O2 saturation sustained to discharge, Mean (SD) (PP, LOS >24 hours (N = 24)): 35.47 h
Time to first 92% O2 saturation sustained to discharge, Median (PP, LOS >24 hours (N = 24)): 38.98 h
Hazard ratio, time to clinical score less than or equal to 5 (PP, LOS greater than 24 hours, 95% CI: 0.093, 0.799): 0.273
Hazard ratio, time to sustained 92% O2 saturation (PP, LOS greater than 24 hours, 95% CI: 0.139, 0.921): 0.358
Hazard ratio, LOS (Kaplan-Meier/Cox) (PP, LOS greater than 24 hours, 95% CI: 0.164, 1.062): 0.418
Time to first 92% O2 saturation sustained to discharge, Mean (SD) (PP, LOS ≦24 hours (N = 14)): 15.32 h
Time to first 92% O2 saturation sustained to discharge, Median (PP, LOS ≦24 hours (N = 14)): 16.75 h
LOS, hours Mean (SD) (PP, LOS ≦24 hours (N = 15)): 18.50 h
LOS, hours Median (PP, LOS ≦24 hours (N = 15)): 18.42 h
Time to Clinical Score ≦5, Mean (SD) (PP, LOS ≦24 hours (N = 15)): 15.32 h
Time to Clinical Score ≦5, Median (PP, LOS ≦24 hours (N = 15)): 16.75 h
median time to clinical score less than or equal to 5 (mITT, 10 most severe subjects (based on LOS) from each group): 41.56 h
median LOS [1]: 42.14 h
median time to 92% O2 saturation sustained to discharge [1]: 41.59 h
median time to clinical score less than or equal to 5 [2]: 34.92 h
median time to first 92% O2 saturation sustained to discharge [2]: 38.98 h
median LOS (mITT, LOS greater than 24 hours (N=25)): 41.83 h
Hazard ratio, time to clinical score less than or equal to 5 (mITT, LOS greater than 24 hours, 95% CI: 0.081, 0.699): 0.238
Hazard ratio, time to sustained 92% O2 saturation (mITT, LOS greater than 24 hours, 95% CI: 0.119, 0.797): 0.308
Hazard ratio, LOS (Kaplan-Meier/Cox) (mITT, LOS greater than 24 hours, 95% CI: 0.140, 0.913): 0.357
median LOS [3]: 41.92 h
median time to 92% O2 saturation sustained to discharge [3]: 41.37 h
median time to clinical score less than or equal to 5 [3]: 41.37 h
